Results reported in ChEMBL document CHEMBL1177877, “Synthesis and in vitro evaluation of substituted pyrimido[5,4-d]pyrimidines as a novel class of anti-Mycobacterium tuberculosis agents” (Eur J Med Chem, 2010).
≈ marks a conversion by molar mass, not a printed value.

Key:
[1] = tested on: Mycobacterium tuberculosis; experiment: Antimycobacterial activity against Mycobacterium tuberculosis H37Rv; assay type: functional, organism-based
Vero = experiment: Cytotoxicity against african green monkey Vero cells; assay type: cell-based; conditions: Chlorocebus sabaeus
[2] = Selectivity index, EC50 for against african green monkey Vero cells to IC50 for Mycobacterium tuberculosis H37Rv; assay type: functional

N=c1c2ncnc(Nc3ccc(F)cc3)c2ncn1NC(=O)c1ccco1
IC50 [1]: 2.17 µg/mL (≈ 5.94 µM)
IC90 [1]: 9.77 µM

N=c1c2ncnc(Nc3ccc(F)cc3)c2ncn1NC(=O)c1ccccc1
EC50 (Vero): 3.05 µg/mL (≈ 8.13 µM)
Ratio [2]: 0.6
IC50 [1]: 2.92 µg/mL (≈ 7.78 µM)
IC90 [1]: 13.5 µM

CC(=O)Nn1cnc2c(Nc3ccccc3)ncnc2c1=N
IC50 [1]: 44.9 µg/mL (≈ 152 µM)
IC90 [1]: > 314 µM

N#Cc1ccc(Nc2ncnc3c(=N)n(NC(=O)c4ccncc4)cnc23)cc1
IC50 [1]: 17.2 µg/mL (≈ 44.9 µM)
IC90 [1]: > 240 µM

N=c1c2ncnc(Nc3ccccc3)c2ncn1NC(=O)c1ccccc1
EC50 (Vero): 2.35 µg/mL (≈ 6.58 µM)
Ratio [2]: 0.38
IC50 [1]: 3.65 µg/mL (≈ 10.2 µM)
IC90 [1]: 17.4 µM

COc1ccc(Nc2ncnc3c(=N)n(NC(C)=O)cnc23)cc1
IC50 [1]: 46.5 µg/mL (≈ 143 µM)
IC90 [1]: > 298 µM

COc1ccc(Nc2ncnc3c(=N)n(NC(=O)c4ccncc4)cnc23)cc1
EC50 (Vero): 1.15 µg/mL (≈ 2.96 µM)
Ratio [2]: 0.27
IC50 [1]: 1.59 µg/mL (≈ 4.09 µM)
IC90 [1]: 9.49 µM

N=c1c2ncnc(Nc3ccccc3)c2ncn1NC(=O)c1ccncc1
EC50 (Vero): 4.37 µg/mL (≈ 12.2 µM)
Ratio [2]: 0.57
IC50 [1]: 4.3 µg/mL (≈ 12 µM)
IC90 [1]: 21 µM

N=c1c2ncnc(Nc3ccc(F)cc3)c2ncn1NC(=O)c1ccncc1
EC50 (Vero): 1.53 µg/mL (≈ 4.07 µM)
Ratio [2]: 0.43
IC50 [1]: 0.91 µg/mL (≈ 2.42 µM)
IC90 [1]: 9.12 µM

COc1ccc(Nc2ncnc3c(=N)n(NC(=O)c4ccccc4)cnc23)cc1
EC50 (Vero): 2.12 µg/mL (≈ 5.47 µM)
Ratio [2]: 0.23
IC50 [1]: 4.11 µg/mL (≈ 10.6 µM)
IC90 [1]: 23.4 µM

CC(=O)Nn1cnc2c(Nc3ccc(C#N)cc3)ncnc2c1=N
IC50 [1]: 42.1 µg/mL (≈ 131 µM)
IC90 [1]: > 311 µM

N#Cc1ccc(Nc2ncnc3c(=N)n(NC(=O)c4ccccc4)cnc23)cc1
IC50 [1]: 2.47 µg/mL (≈ 6.46 µM)
IC90 [1]: 36.1 µM

N=c1c2ncnc(Nc3ccccc3)c2ncn1NC(=O)c1ccco1
IC50 [1]: 3.16 µg/mL (≈ 9.1 µM)
IC90 [1]: 14 µM

COc1ccc(Nc2ncnc3c(=N)n(NC(=O)c4ccco4)cnc23)cc1
IC50 [1]: 3.56 µg/mL (≈ 9.43 µM)
IC90 [1]: 261 µM

CC(=O)Nn1cnc2c(Nc3ccc(F)cc3)ncnc2c1=N
IC50 [1]: 18.7 µg/mL (≈ 59.7 µM)
IC90 [1]: 91.4 µM
